Where a name gives a salt, the structure may show the parent alone.
Legend:
[1] = biological target: PI3Kγ (p110γ) Recombinant Human Protein (Homo sapiens (Human), UniProt P48736); assay: PI3K-γ Scintillation Proximity Assay; format: biochemical; details: read-out: PI3Kγ IC50
Procedure, shortened: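 Radiometric SPA readout: […] bound to WGA beads after overnight shaking, IC50 derived from % activity of DMSO control. Reaction used human p110γ, 2 μM ATP, 20 μM PIP2, pH 6.7 MOPS buffer with MgCl2, DTT, CHAPS, 2% DMSO, room temperature.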

[2] = biological target: PI3Kδ (p110δ/p85α) Recombinant Human Protein (Homo sapiens (Human), UniProt O00329); assay: PI3Kδ Scintillation Proximity Assay; format: biochemical
Source text: Example C. PI3Kδ Scintillation Proximity Assay
[γ-^33P]ATP (10 mCi/mL) and Wheat Germ Agglutinin (WGA) YSi SPA Scintillation Beads was purchased from Perkin-Elmer (Waltham, Mass.). Lipid kinase substrate, D-myo-Phosphatidylinositol 4,5-bisphosphate (PtdIns(4,5)P2)D (+)-sn-1,2-di-O-octanoylglyceryl, 3-O-phospho linked (PIP2), CAS 204858-53-7, was purchased from Echelon Biosciences (Salt Lake City, Utah). PI3Kδ (p110δ/p85α) Recombinant Human Protein was purchased from Eurofins (St Charles, Mo.). ATP, MgCl2, DTT, EDTA, MOPS and CHAPS were purchased from Sigma-Aldrich (St. Louis, Mo.).
The kinase reaction was conducted in polystyrene 384-well Greiner Bio-one white plate from Thermo Fisher Scientific in a final volume of 25 μL. Inhibitors were first diluted serially in DMSO and added to the plate wells before the addition of other reaction components. The final concentration of DMSO in the assay was 2%. The PI3Kδ assay was carried out at room temperature in 20 mM MOPS, pH 6.7, 10 mM MgCl2, 5 mM DTT and CHAPS 0.03%. Reactions were initiated by the addition of ATP, the final reaction mixture consisted of 20 μM PIP2, 2 μM ATP, 0.5 μCi [γ-^33P] ATP, 3.4 nM PI3Kδ. Reactions were incubated for 120 min and terminated by the addition of 40 μL SPA beads suspended in quench buffer: 163 mM potassium phosphate pH 7.8, 20% glycerol, 25 mM EDTA. The final concentration of SPA beads is 1.0 mg/mL. After the plate sealing, plates were shaken overnight at room temperature and centrifuged at 1500 rpm for 10 min, the radioactivity of the product was determined by scintillation counting on Topcount (Perkin-Elmer). IC50 determination was performed by fitting the curve of percent of the solvent control activity versus the log of the inhibitor concentration using the GraphPad Prism 6.0 software.

PI3Kγ (p110γ) Recombinant Human Protein, sequence (P48736 whole entry): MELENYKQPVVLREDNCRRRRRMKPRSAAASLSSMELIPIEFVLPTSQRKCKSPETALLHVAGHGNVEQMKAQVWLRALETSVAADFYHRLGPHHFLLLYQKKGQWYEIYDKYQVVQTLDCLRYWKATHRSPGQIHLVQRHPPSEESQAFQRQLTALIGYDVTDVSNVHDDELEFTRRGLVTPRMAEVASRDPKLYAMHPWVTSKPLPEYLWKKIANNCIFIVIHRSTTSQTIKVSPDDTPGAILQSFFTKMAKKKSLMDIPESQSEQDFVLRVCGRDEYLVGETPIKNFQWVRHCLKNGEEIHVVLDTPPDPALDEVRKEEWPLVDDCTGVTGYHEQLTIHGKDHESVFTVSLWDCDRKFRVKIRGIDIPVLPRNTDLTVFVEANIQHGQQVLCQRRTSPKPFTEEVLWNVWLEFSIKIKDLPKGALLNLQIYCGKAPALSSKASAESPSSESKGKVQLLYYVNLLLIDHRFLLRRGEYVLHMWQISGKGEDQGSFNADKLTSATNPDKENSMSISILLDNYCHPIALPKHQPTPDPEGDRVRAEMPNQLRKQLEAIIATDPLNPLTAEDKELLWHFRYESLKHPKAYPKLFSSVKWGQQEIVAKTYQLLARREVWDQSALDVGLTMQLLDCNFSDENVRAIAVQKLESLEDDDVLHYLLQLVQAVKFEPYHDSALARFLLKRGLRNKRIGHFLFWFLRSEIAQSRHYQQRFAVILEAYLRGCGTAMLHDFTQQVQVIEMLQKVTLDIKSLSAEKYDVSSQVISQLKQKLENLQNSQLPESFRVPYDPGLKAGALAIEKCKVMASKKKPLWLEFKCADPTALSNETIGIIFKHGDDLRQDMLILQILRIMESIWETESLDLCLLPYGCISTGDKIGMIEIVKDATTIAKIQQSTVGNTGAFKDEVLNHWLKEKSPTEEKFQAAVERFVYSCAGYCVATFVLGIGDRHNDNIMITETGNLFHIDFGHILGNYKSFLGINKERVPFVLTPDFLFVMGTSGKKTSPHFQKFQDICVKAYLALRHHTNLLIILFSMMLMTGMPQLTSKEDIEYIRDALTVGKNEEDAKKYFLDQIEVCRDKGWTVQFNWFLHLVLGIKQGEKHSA
PI3Kδ (p110δ/p85α) Recombinant Human Protein, sequence (O00329 whole entry): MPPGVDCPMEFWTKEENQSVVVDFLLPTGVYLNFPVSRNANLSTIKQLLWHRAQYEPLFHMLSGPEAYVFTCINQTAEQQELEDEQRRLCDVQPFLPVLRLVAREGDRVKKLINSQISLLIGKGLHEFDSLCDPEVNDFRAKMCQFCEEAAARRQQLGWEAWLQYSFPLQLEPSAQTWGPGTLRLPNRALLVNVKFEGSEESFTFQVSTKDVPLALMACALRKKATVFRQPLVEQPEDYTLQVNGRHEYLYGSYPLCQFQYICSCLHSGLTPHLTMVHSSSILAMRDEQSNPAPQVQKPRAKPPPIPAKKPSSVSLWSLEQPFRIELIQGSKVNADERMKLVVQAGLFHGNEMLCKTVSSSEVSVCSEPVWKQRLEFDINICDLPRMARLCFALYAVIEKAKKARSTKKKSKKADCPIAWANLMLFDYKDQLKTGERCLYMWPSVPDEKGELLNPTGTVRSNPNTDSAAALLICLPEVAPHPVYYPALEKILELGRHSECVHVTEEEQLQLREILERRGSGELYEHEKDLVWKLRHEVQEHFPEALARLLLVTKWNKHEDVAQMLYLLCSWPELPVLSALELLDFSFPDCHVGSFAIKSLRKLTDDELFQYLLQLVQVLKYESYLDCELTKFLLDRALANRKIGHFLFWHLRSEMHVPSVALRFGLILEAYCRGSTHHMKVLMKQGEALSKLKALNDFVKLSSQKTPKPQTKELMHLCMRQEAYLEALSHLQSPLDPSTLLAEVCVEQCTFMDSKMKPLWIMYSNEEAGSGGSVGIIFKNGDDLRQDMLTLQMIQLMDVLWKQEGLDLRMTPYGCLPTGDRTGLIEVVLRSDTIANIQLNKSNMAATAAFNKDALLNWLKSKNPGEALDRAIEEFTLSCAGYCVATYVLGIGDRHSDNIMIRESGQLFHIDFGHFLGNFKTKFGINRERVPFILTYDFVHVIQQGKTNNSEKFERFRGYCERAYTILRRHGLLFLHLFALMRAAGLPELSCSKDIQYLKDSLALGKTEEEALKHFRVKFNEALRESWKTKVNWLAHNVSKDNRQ
PI3Kδ (p110δ/p85α) Recombinant Human Protein, sequence (P27986 whole entry partner): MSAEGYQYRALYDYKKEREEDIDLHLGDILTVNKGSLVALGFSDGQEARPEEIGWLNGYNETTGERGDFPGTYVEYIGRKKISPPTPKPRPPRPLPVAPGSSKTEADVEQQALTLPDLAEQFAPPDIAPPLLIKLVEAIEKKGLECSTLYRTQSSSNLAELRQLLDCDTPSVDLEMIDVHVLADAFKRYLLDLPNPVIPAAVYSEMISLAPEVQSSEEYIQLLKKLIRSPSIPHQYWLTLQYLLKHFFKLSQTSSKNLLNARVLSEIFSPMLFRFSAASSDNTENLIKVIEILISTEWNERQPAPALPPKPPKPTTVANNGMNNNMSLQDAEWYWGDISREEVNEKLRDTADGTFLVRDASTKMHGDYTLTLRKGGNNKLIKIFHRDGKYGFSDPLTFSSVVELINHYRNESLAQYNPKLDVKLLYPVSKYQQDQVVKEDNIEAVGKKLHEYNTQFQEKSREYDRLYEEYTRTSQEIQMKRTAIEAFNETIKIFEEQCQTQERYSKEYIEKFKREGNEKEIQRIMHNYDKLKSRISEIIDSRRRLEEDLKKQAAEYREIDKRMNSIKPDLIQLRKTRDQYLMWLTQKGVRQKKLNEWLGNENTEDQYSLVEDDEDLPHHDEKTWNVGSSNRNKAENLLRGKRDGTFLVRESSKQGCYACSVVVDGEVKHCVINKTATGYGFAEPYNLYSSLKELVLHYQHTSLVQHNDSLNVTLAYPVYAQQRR

IC50 [1] [nM]	IC50 [2] [nM]	Structure (SMILES)
< 100	> 2000	Cc1ccc(S(=O)(=O)N2CCCC(CNC(=O)OC(C)(C)C)C2)cc1-c1cnc2c(N)nc(C(F)(F)F)cn12 (stereo not drawn) [Example 512, tert-Butyl ((1-((3-(8-amino-6-(trifluoromethyl)imidazo[1,2-a]pyrazin-3-yl)-4-methylphenyl)sulfonyl)piperidin-3-yl)methyl)carbamate]
< 100	500 to 2000	Cc1ccc(S(=O)(=O)N2CCOC3CNCC32)cc1-c1cnc2c(N)nc(C(F)(F)F)cn12 (stereo not drawn) [Example 304, 3-(5-((hexahydropyrrolo[3,4-b][1,4]oxazin-4(4aH)-yl)sulfonyl)-2-methylphenyl)-6-(trifluoromethyl)imidazo[1,2-a]pyrazin-8-amine]
100 to 500	500 to 2000	Cc1ccc(S(C)(=O)=O)cc1-c1cnc2c(N)nc(C(=O)Nc3cc(-c4ccco4)[nH]n3)cn12 [Example 454, 8-amino-N-(5-(furan-2-yl)-1H-pyrazol-3-yl)-3-(2-methyl-5-(methylsulfonyl)phenyl)imidazo[1,2-a]pyrazine-6-carboxamide trifluoroacetate salt]
< 100	100 to 500	Cc1ccc(S(=O)(=O)N2CC(N3CCOCC3)C2)cc1-c1cnc2c(N)ncnn12 [Example 146, 7-(2-methyl-5-((3-morpholinoazetidin-1-yl)sulfonyl)phenyl)imidazo[2,1-f][1,2,4]triazin-4-amine, 2TFA]
< 100	500 to 2000	Cc1ccc(S(=O)(=O)N(C)CC2(CO)CCC2)cc1-c1cnc2c(N)ncnn12 [Example 178, 3-(4-aminoimidazo[2,1-f][1,2,4]triazin-7-yl)-N-((1-(hydroxymethyl)cyclobutyl)methyl)-N,4-dimethylbenzenesulfonamide]
< 100	500 to 2000	COc1ccc(S(=O)(=O)NC23CCC(C#N)(C2)C3)cc1-c1cnc2c(N)ncnn12 [Example 372, 3-(4-Aminoimidazo[1,2-f][1,2,4]triazin-7-yl)-N-(4-cyanobicyclo[2.1.1]hexan-1-yl)-4-methoxybenzenesulfonamide trifluoroacetate salt]
100 to 500	100 to 500	Cc1ccc(S(C)(=O)=O)cc1-c1cnc2c(N)nc(C(=O)NCC3CCC(C(F)(F)F)CC3)cn12 (mixture of isomers) [Example 456, 8-amino-3-(2-methyl-5-(methylsulfonyl)phenyl)-N-((4-(trifluoromethyl)cyclohexyl)methyl)imidazo[1,2-a]pyrazine-6-carboxamide trifluoroacetate salt (1:1 cis/trans isomers)]
100 to 500	500 to 2000	Cc1ccc(S(=O)(=O)CC2CC2)cc1-c1cnc2c(N)ncnn12 [Example 499, 7-(5-((Cyclopropylmethyl)sulfonyl)-2-methylphenyl)imidazo[2,1-f][1,2,4]triazin-4-amine]
100 to 500	500 to 2000	Cc1ccc(S(=O)(=O)N2CC(=O)N3CCCC[C@@H]3C2)cc1-c1cnc2c(N)ncnn12 [Example 172, (R)-2-((3-(4-aminoimidazo[2,1-f][1,2,4]triazin-7-yl)-4-methylphenyl)sulfonyl)octahydro-4H-pyrido[1,2-a]pyrazin-4-one]
< 100	500 to 2000	Cc1ccc(S(=O)(=O)N2CCC[C@H]2C(C)(C)O)cc1-c1cnc2c(N)ncnn12 [Example 213, (S)-2-(1-((3-(4-Aminoimidazo[2,1-f][1,2,4]triazin-7-yl)-4-methylphenyl)sulfonyl)pyrroldiin-2-yl)propan-2-ol]
100 to 500	100 to 500	Cc1ccc(S(C)(=O)=O)cc1-c1cnc2c(N)nc(C(=O)NCCCn3cccn3)cn12 [Example 457, N-(3-(1H-pyrazol-1-yl)propyl)-8-amino-3-(2-methyl-5-(methylsulfonyl)phenyl)imidazo[1,2-a]pyrazine-6-carboxamide trifluoroacetate salt]
< 100	500 to 2000	Cc1ccc(S(=O)(=O)N2CCCC2c2c(C)noc2C)cc1-c1cnc2c(N)ncnn12 (stereo not drawn) [Example 168, 7-(5-((2-(3,5-dimethylisoxazol-4-yl)pyrrolidin-1-yl)sulfonyl)-2-methylphenyl)imidazo[2,1-f][1,2,4]triazin-4-amine]
100 to 500	> 2000	Cc1ccc(S(=O)(=O)N2CCN3C(=O)OC[C@H]3C2)cc1-c1cnc2c(N)ncnn12 [Example 174, (R)-7-((3-(4-aminoimidazo[2,1-f][1,2,4]triazin-7-yl)-4-methylphenyl)sulfonyl)hexahydro-3H-oxazolo[3,4-a]pyrazin-3-one]
500 to 2000	> 2000	CC(C)(O)CNS(=O)(=O)c1ccc(C(F)(F)F)c(-c2cnc3c(N)nc(C(F)(F)F)cn23)c1 [Example 407, 3-(8-amino-6-(trifluoromethyl)imidazo[1,2-a]pyrazin-3-yl)-N-(2-hydroxy-2-methylpropyl)-4-(trifluoromethyl)benzenesulfonamide]
500 to 2000	> 2000	COCCN1CCCC(NC(=O)c2cn3c(-c4cc(S(C)(=O)=O)ccc4C)cnc3c(N)n2)C1 (stereo not drawn) [Example 458, 8-Amino-N-(1-(2-methoxyethyl)piperidin-3-yl)-3-(2-methyl-5-(methylsulfonyl)phenyl)imidazo[1,2-a]pyrazine-6-carboxamide trifluoroacetate salt]
< 100	500 to 2000	Cc1ccc(S(=O)(=O)N2CCC3(CC2)COC(=O)N3)cc1-c1cnc2c(N)ncnn12 [Example 193, 8-((3-(4-Aminoimidazo[2,1-f][1,2,4]triazin-7-yl)-4-methylphenyl)sulfonyl)-3-oxa-1,8-diazaspiro[4.5]decan-2-one]
100 to 500	500 to 2000	Cc1ccc(S(=O)(=O)N2CCC(N(C)C)C2)cc1-c1cnc2c(N)ncnn12 (stereo not drawn) [Example 204, 7-(5-((3-(Dimethylamino)pyrrolidin-1-yl)sulfonyl)-2-methylphenyl)imidazo[2,1-f][1,2,4]triazin-4-amine]
100 to 500	500 to 2000	Cc1cn2c(-c3ccc(F)c(S(=O)(=O)NC45CC(C#N)(C4)C5)c3)cnc2c(N)n1 [Example 382, 5-(8-Amino-6-methylimidazo[1,2-a]pyrazin-3-yl)-N-(3-cyanobicyclo[1.1.1]pentan-1-yl)-2-fluorobenzenesulfonamide trifluoroacetate salt]

Structure (SMILES)	IC50 [1] [nM]	IC50 [2] [nM]
Cc1ccc(S(=O)(=O)N[C@H]2C[C@H](C#N)C2)cc1-c1cnc2c(N)ncnn12 [Example 370, 3-(4-Aminoimidazo[2,1-f][1,2,4]triazin-7-yl)-N-((1r,3r)-3-cyanocyclobutyl)-4-(methyl-d3)benzenesulfonamide trifluoroacetate salt]	< 100	100 to 500
Cc1ccc(S(=O)(=O)N2[C@@H]3CC[C@H]2CN(C)C3)cc1-c1cnc2c(N)ncnn12 [Example 170, 7-(2-methyl-5-(((1R,5S)-3-methyl-3,8-diazabicyclo[3.2.1]octan-8-yl)sulfonyl)phenyl)imidazo[2,1-f][1,2,4]triazin-4-amine]	< 100	500 to 2000
Cc1ccc(S(=O)(=O)N2C3CCC2CC(O)C3)cc1-c1cnc2c(N)ncnn12 (stereo not drawn) [Example 120, 8-{[3-(4-aminoimidazo[2,1-f][1,2,4]triazin-7-yl)-4-methylphenyl]sulfonyl}-8-azabicyclo[3.2.1]octan-3-ol]	< 100	100 to 500
